Assay results: patent publication US20240408117A1, “COMPOSITIONS AND METHODS FOR TREATING HEMIPLEGIC MIGRAINE” (Schedule 1 Therapeutics, Inc., priority 2023, published 2024)
≈ marks a conversion by molar mass, not a printed value.

Key:
[1] = Hygroscopicity of dronabinol by thermogravimetric analysis; type: physicochemical
[2] = Solubility of dronabinol at 25° C.; type: physicochemical; conditions: for solubility: organic solvent or mixture
Procedure: Solubility at 25° C.: Dronabinol is immiscible in water.

OEL of cannabidiol = conditions: estimated
[3] = Accelerated and long-term stability studies of cannabidiol (ICH Q1A (R2)); type: physicochemical; conditions: batches stored per ICH Q1A (R2)
Procedure: Manufacturing of all lots of cannabidiol was conducted in a manner consistent with Good Manufacturing Practices and ICH Q7 regulations. Consistent with these principles, and in direct regard to production of cannabidiol, the manufacturer conducted accelerated stability studies utilizing batches of cannabidiol manufactured at full scale. […]. In addition, the manufacturer has batches of cannabidiol on a long-term stability study. […] For these batches, the data and results from these stability studies are in compliance with documentation procedures.

[4] = Solubility of cannabidiol in solvents, oils and buffers at 25° C.; type: physicochemical

## CCCCCc1cc(O)c2c(c1)OC(C)(C)[C@@H]1CCC(C)=C[C@@H]21 [Dronabinol, 2-(6aR,10aR) 6a,7,8,10a-tetrahydro-6,6,9-trimethyl-3-pentyl-6H-dibenzo[b,d]pyran-l-ol]
[1]
  Hygroscopicity: non-hygroscopic
[1]; approximately 140° C.
  weight change: less than 0.1%
[2]; Water
  Solubility: immiscible
[2]; Acetone
  solubility: 100 mg/mL (≈ 318 mM)
[2]; Ethanol
  solubility: 100 mg/mL (≈ 318 mM)

## C=C(C)[C@@H]1CCC(C)=C[C@H]1c1c(O)cc(CCCCC)cc1O [Cannabidiol, 2-[(1R,6R)-3-methyl-6-prop-1-en-2-ylcyclohex-2-en-1-yl]-5-pentylbenzene-1,3-diol]
OEL of cannabidiol
  OEL: 5-20 μg/m^3
[3]
  Stability (impurity levels, assay): no trends towards increased impurity levels or decrease in assay
[4]; Britton Robinson Buffer, aqueous buffer, BRB pH 6, 25° C.
  solubility: 0.00013 mg/mL (≈ 0.000413 mM)
[4]; Britton Robinson Buffer, aqueous buffer, BRB pH 8, 25° C.
  solubility: 0.00012 mg/mL (≈ 0.000382 mM)
[4]; Britton Robinson Buffer, pH 4, aqueous buffer, BRB pH4, 25° C.
  solubility: 0.00011 mg/mL (≈ 0.00035 mM)
[4]; Britton Robinson buffer, aqueous buffer, BRB pH 10, 25° C.
  solubility: 0.00013 mg/mL (≈ 0.000413 mM)
[4]; Britton Robinson buffer, aqueous buffer, BRB pH 11, 25° C.
  solubility: 0.00041 mg/mL (≈ 0.0013 mM)
[4]; Heptane, 25° C.
  Solubility: 64.6 mg/mL (≈ 205 mM)
[4]; Isooctane, 25° C.
  Solubility: 43.9 mg/mL (≈ 140 mM)
[4]; Water, 25° C.
  Solubility: <0.1 mg/mL
  solubility: < 0.1 mg/mL
[4]; aqueous buffer, BRB (Britton Robinson Buffer) pH 2, 25° C.
  solubility: 0.00011 mg/mL (≈ 0.00035 mM)
[4]; aqueous buffer, Britton Robinson Buffers
  solubility: < 0.1 mg/mL
[4]; aqueous buffer, Phosphate Buffer pH 6.5 without SLS, 25° C.
  solubility: 0.00015 mg/mL (≈ 0.000477 mM)
[4]; aqueous with cosolvent or surfactant or cyclodextrin, Cremophor EL, 25° C.
  solubility: > 100 mg/mL
[4]; aqueous with cosolvent or surfactant or cyclodextrin, Tween 80, 25° C.
  solubility: > 100 mg/mL
[4]; n-Decane, 25° C.
  Solubility: 36.8 mg/mL (≈ 117 mM)
[4]; oil or lipid, Dodecane Oil, 25° C.
  solubility: 28 mg/mL (≈ 89 mM)
[4]; oil or lipid, Mineral Oil, 25° C.
  solubility: 16 mg/mL (≈ 50.9 mM)
[4]; oil or lipid, Sesame Oil, 25° C.
  solubility: 216 mg/mL (≈ 687 mM)
[4]; oil or lipid, Sunflower Seed Oil, 25° C.
  solubility: > 100 mg/mL
[4]; organic solvent or mixture, 1,2-Dimethyloxyethane, 25° C.
  solubility: > 100 mg/mL
[4]; organic solvent or mixture, 1,4-dioxane, 25° C.
  solubility: > 100 mg/mL
[4]; organic solvent or mixture, 1-Propanol, 25° C.
  solubility: > 100 mg/mL
[4]; organic solvent or mixture, 2-Propanol (IPA), 25° C.
  solubility: > 100 mg/mL
[4]; organic solvent or mixture, 2-butanone, 25° C.
  solubility: > 100 mg/mL
[4]; organic solvent or mixture, 2-methyl tetrahydrofuran (2-MeTHF), 25° C.
  solubility: > 100 mg/mL
[4]; organic solvent or mixture, 2-methyl tetrahydrofuran saturated with water, 25° C.
  solubility: > 100 mg/mL
[4]; organic solvent or mixture, Acetone, 25° C.
  solubility: > 100 mg/mL
[4]; organic solvent or mixture, Acetonitrile (ACN), 25° C.
  solubility: > 100 mg/mL
[4]; organic solvent or mixture, Anisole, 25° C.
  solubility: > 100 mg/mL
[4]; organic solvent or mixture, Chloroform, 25° C.
  solubility: > 100 mg/mL
[4]; organic solvent or mixture, Cumene, 25° C.
  solubility: > 100 mg/mL
[4]; organic solvent or mixture, Cyclohexane, 25° C.
  solubility: > 100 mg/mL
[4]; organic solvent or mixture, DMSO, 25° C.
  solubility: > 100 mg/mL
[4]; organic solvent or mixture, Dichloromethane, 25° C.
  solubility: > 100 mg/mL
[4]; organic solvent or mixture, Diethyl Ether, 25° C.
  solubility: > 100 mg/mL
[4]; organic solvent or mixture, Ethanol (EtOH), 25° C.
  solubility: > 100 mg/mL
[4]; organic solvent or mixture, Ethyl Acetate (EtOAc), 25° C.
  solubility: > 100 mg/mL
[4]; organic solvent or mixture, Ethyl Formate, 25° C.
  solubility: > 100 mg/mL
[4]; organic solvent or mixture, Isobutanol, 25° C.
  solubility: > 100 mg/mL
[4]; organic solvent or mixture, Isopropyl Acetate (IPAc), 25° C.
  solubility: > 100 mg/mL
[4]; organic solvent or mixture, Methanol (MeOH), 25° C.
  solubility: > 100 mg/mL
[4]; organic solvent or mixture, N-methyl-pyrrolidone, 25° C.
  solubility: > 100 mg/mL
[4]; organic solvent or mixture, Tetrahydrofuran, 25° C.
  solubility: > 100 mg/mL
[4]; organic solvent or mixture, Toluene, 25° C.
  solubility: > 100 mg/mL
[4]; organic solvent or mixture, all other solvents examined with the exception of heptane, n-decane and isooctane
  solubility: > 100 mg/mL
[4]; organic solvent or mixture, methylcyclohexane, 25° C.
  solubility: > 100 mg/mL
[4]; organic solvent or mixture, n-hexane, 25° C.
  solubility: > 100 mg/mL
[4]; organic solvent or mixture, p-Xylene, 25° C.
  solubility: > 100 mg/mL
[4]; organic solvent or mixture, tert-Butyl methyl ether (MTBE), 25° C.
  solubility: > 100 mg/mL
[4]; phosphate buffer with 0.4% SLS, aqueous with cosolvent or surfactant or cyclodextrin, Phosphate Buffer pH 6.5 with 0.4% SLS, 25° C.
  solubility: 0.00012 mg/mL (≈ 0.000382 mM)
